Source: patent publication US6172081A, “Tetrahydroisoquinoline 3-carboxamide derivatives” (Novartis AG, priority 1999, dated 2001)
Structures can show the parent of a compound that is named as a salt.

Tests used:
Type in all cases: biochemical
DPP-IV = target: T1, DPP-IV (Homo sapiens, UniProt P27487); assay: Caco-2 DPP-IV Assay (inhibition of DPP-IV activity from human colonic carcinoma cell extracts); conditions: Caco-2 cell extract; substrate H-Alanine-Proline-pNA; pH 7.4; room temperature, 10 minutes
T1 construct: DPP-IV activity from human colonic carcinoma cell extracts; endogenous in cells; host or cells: Caco-2 (ATCC HTB 37), differentiated to induce DPP-IV expression; nonidet-P40 extract
T1 sequence (P27487 whole entry): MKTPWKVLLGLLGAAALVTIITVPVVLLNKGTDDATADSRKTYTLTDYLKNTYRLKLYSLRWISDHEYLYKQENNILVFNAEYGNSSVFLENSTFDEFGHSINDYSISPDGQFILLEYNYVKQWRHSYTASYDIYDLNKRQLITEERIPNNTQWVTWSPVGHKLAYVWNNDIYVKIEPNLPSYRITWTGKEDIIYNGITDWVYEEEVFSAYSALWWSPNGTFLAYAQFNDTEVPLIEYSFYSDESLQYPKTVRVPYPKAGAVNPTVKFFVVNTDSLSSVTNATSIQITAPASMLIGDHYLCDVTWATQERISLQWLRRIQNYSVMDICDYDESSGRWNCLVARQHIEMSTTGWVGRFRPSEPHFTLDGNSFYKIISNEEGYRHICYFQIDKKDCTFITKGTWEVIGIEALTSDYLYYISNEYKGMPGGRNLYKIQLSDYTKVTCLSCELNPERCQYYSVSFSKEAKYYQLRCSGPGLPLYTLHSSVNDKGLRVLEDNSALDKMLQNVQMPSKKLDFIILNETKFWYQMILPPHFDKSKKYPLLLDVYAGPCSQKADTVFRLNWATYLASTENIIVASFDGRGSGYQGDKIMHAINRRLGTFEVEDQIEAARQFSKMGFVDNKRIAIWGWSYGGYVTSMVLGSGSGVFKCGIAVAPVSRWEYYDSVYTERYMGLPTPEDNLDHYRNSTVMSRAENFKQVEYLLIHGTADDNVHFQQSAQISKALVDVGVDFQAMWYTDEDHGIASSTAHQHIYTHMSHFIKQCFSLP
Excerpt: As indicated above, all of the compounds of formula I, and their corresponding pharmaceutically acceptable acid addition salts, are useful in inhibiting DPP-IV. […] The human colonic carcinoma cell line Caco-2 was obtained from the American Type Culture Collection (ATCC HTB 37). Differentiation of the cells to induce DPP-IV expression was accomplished as described by Reisher, et al. in an article entitled "Increased expression of . . . intestinal cell line Caco-2" in Proc. Natl. Acad. Sci., Vol. 90, pgs. 5757-5761 (1993). Cell extract is prepared from cells solubilized in 10 mM Tris-HCl, 0.15 M NaCl, 0.04 t.i.u. aprotinin, 0.5% nonidet-P40, pH 8.0, which is centrifuged at 35,000 g for 30 min. at 4° C. to remove cell debris. The assay is conducted by adding […] solubilized Caco-2 protein, diluted to a final volume of 125 mL in assay buffer (25 mM Tris-HCl pH 7.4, 140 mM NaCl, 10 mM KCl, 1% bovine serum albumin) to microtiter plate wells. The reaction is initiated by adding 25 mL of 1 mM substrate (H-Alanine-Proline-pNA; pNA is p-nitroaniline). The reaction is run at room temperature for 10 minutes after which time a 19 mL volume of 25% glacial acetic acid is added to stop the reaction. Test compounds are typically added as 30 mL additions and the assay buffer volume is reduced to 95 mL. A standard curve of free p-nitroaniline is generated using […] solutions of free pNA in assay buffer. The curve generated is linear and is used for interpolation of substrate consumption (catalytic activity in nmoles substrate cleaved/min). The endpoint is determined by measuring absorbance at 405 nm in a Molecular Devices UV Max microtiter plate reader. The potency of the test compounds as DPP-IV inhibitors, expressed as IC50, is calculated from 8-point, dose-response curves using a 4-parameter logistic function.

human plasma DPP-IV = target: T2, human plasma DPP-IV (Homo sapiens, UniProt P27487); assay: Inhibition of DPP-IV activity in human plasma; conditions: substrate H-Glycine-Proline-AMC, pH 7.8, room temperature, 20 min
T2 construct: DPP-IV activity in human and rat plasma; from tissue; host or cells: human plasma
T2 sequence (P27487 39-766 limits assumed): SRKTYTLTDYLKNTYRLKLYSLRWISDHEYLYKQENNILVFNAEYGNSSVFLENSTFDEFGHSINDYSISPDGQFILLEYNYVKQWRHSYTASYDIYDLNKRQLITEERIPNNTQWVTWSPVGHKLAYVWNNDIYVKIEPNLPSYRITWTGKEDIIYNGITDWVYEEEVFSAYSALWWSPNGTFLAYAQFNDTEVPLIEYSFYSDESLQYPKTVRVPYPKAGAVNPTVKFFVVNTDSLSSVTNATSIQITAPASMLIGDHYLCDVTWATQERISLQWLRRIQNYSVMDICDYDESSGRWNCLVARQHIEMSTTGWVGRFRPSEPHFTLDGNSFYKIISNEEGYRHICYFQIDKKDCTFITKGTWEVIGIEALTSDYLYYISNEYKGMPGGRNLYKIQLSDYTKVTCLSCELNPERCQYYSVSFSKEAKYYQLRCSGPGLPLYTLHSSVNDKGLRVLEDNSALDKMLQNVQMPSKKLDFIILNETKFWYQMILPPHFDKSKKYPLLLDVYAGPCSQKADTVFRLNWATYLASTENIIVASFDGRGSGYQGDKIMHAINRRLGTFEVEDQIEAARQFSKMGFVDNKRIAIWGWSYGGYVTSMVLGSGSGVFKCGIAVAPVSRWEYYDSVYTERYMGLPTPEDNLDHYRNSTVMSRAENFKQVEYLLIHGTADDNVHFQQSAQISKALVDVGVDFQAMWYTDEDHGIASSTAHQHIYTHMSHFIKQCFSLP
Method: (§1) 192-197 (1992). Briefly, five […] are added to 96-well flat-bottom mictotiter plates (Falcon), followed by the addition of 5 mL of 80 mM MgCl2 in incubation buffer (25 mM HEPES, 140 mM NaCl, 1% RIA-grade BSA, pH 7.8). After a 5 min. incubation at room temperature, the reaction is initiated by the addition of 10 mL of incubation buffer containing 0.1 mM substrate (H-Glycine-Proline-AMC; AMC is 7-amino-4-methylcoumarin). The plates are covered with aluminum foil (or kept in the dark,) and incubated at room temperature for 20 min. After the 20 min. reaction, fluorescence is measured using a CytoFluor 2350 fluorimeter (Excitation 380 nm Emission 460 nm; sensitivity setting 4). Test compounds are typically added as 2 mL additions and the assay buffer volume is reduced to 13 mL. A fluorescence-concentration curve of free AMC is generated using […] solutions of AMC in assay buffer. The curve generated is linear and is used for interpolation of substrate consumption (catalytic activity in nmoles substrate cleaved/min). As with the previous assay, the potency of the test compounds as DPP-IV inhibitors, expressed as IC50, is calculated from 8-point, dose-response curves using a 4 parameter logistic function.

rat plasma DPP-IV = target: T3, rat plasma DPP-IV (Rattus norvegicus, UniProt P14740); assay: Inhibition of DPP-IV activity in rat plasma; conditions: substrate H-Glycine-Proline-AMC, pH 7.8, room temperature, 20 min
T3 construct: DPP-IV activity in human and rat plasma; from tissue; host or cells: rat plasma
T3 sequence (P14740 37-767 limits assumed): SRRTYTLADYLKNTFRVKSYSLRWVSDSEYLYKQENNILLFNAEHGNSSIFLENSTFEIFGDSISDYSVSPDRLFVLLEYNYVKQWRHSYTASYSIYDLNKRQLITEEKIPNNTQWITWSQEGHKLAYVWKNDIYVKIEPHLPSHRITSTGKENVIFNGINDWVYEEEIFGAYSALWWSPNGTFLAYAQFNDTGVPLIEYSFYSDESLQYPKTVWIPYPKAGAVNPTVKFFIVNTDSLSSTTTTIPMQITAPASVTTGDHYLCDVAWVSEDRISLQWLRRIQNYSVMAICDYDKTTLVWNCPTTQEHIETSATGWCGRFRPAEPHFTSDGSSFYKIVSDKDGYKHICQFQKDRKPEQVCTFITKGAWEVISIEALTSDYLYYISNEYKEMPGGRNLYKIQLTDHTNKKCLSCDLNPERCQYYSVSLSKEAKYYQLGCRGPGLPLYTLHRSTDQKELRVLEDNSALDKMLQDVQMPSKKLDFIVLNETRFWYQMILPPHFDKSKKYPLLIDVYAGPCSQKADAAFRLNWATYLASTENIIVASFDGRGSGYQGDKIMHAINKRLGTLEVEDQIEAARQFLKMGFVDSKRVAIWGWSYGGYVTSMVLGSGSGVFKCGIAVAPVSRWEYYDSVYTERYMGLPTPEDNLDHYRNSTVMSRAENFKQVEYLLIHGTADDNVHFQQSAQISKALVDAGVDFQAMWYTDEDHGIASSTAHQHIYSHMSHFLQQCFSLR
Method: as §1

IC50 (DPP-IV) [nM]	IC50 (human plasma DPP-IV) [nM]	IC50 (rat plasma DPP-IV) [nM]	SMILES
10	–	–	CCN(CC)CCCOc1ccc2c(c1)CNC(C(=O)N1CCCC1C#N)C2 (stereo not drawn) [Ex. 8, [S-(R*,R*)]-1-[7-(3-diethylamino)propoxy-1,2,3,4-tetrahydro-3-isoquinolinyl]carbonyl-2-Pyrrolidinecarbonitrile]
16	5	12	N#C[C@@H]1CCCN1C(=O)[C@@H]1Cc2ccc(OCC(N)=O)cc2CN1 [Ex. 10, [S-(R*,R*)]-[3-(2-cyano-1-pyrrolidinyl)carbonyl-1,2,3,4-tetrahydro-7-isoquinolinyl]oxy-Acetamide]
10	–	–	N#C[C@@H]1CCCN1C(=O)[C@@H]1Cc2ccc(OCC(=O)O)cc2CN1 [Ex. 11, [S-(R*,R*)]-[3-(2-cyano-1-pyrrolidinyl)carbonyl-1,2,3,4-tetrahydro-7-isoquinolinyl]oxy-Acetic acid]
10	–	–	CCOCCOCCOc1ccc2c(c1)CN[C@H](C(=O)N1CCC[C@H]1C#N)C2 [Ex. 9, [S-(R*,R*)]-1-[7-[2-(2-ethoxyethoxy)ethoxy]-1,2,3,4-tetrahydro-3-isoquinolinyl]carbonyl-2-Pyrrolidinecarbonitrile trifluoroacetate]

The remaining lines, values behind:

SMILES	IC50 (DPP-IV) [nM]	IC50 (human plasma DPP-IV) [nM]	IC50 (rat plasma DPP-IV) [nM]
COc1cc2c(cc1OC)CC(C(=O)N1CCC[C@H]1C#N)NC2 (stereo partly drawn) [Ex. 6, [S-(R*,R*)]-1-[1,2,3,4-tetrahydro-6,7-dimethoxy-3-isoquinolinyl]carbonyl-2-Pyrrolidinecarbonitrile]	> 10000	–	–
COc1ccc2c(c1)CN[C@H](C(=O)N1CCC[C@H]1C#N)C2 [Ex. 3, [S-(R*,R*)]-1-(1,2,3,4-tetrahydro-7-methoxy-3-isoquinolinyl)carbonyl-2-Pyrrolidinecarbonitrile trifluoroacetate]	14	4	16
COc1cc2c(cc1OC)CC(C(=O)N1CCC[C@H]1C#N)NC2 (single isomer, unassigned; diastereomer b) [Ex. 7, 1-[1,2,3,4-tetrahydro-6,7-dimethoxy-3-isoquinolinyl]carbonyl-2-Pyrrolidinecarbonitrile [Diastereomer B]]	13	12	78
N#C[C@@H]1CCCN1C(=O)[C@@H]1Cc2ccc(OCc3ccccc3)cc2CN1 [Ex. 4, [S-(R*,R*)]-1-(1,2,3,4-tetrahydro-7-phenylmethoxy-3-isoquinolinyl)carbonyl-2-Pyrrolidinecarbonitrile trifluoroacetate]	9	167	1300
N#C[C@@H]1CCCN1C(=O)[C@@H]1Cc2ccc(O)cc2CN1 [Ex. 2, [S-(R*,R*)]-1-(1,2,3,4-tetrahydro-7-hydroxy-3-isoquinolinyl)carbonyl-2-Pyrrolidinecarbonitrile trifluoroacetate]	4	–	–
CCCOc1ccc2c(c1)CN[C@H](C(=O)N1CCC[C@H]1C#N)C2 [Ex. 5, [S-(R*,R*)]-1-(1,2,3,4-tetrahydro-7-propoxy-3-isoquinolinyl)carbonyl-2-Pyrrolidinecarbonitrile trifluoroacetate]	8	49	315
N#C[C@@H]1CCCN1C(=O)[C@@H]1Cc2ccccc2CN1 [Ex. 1, [S-(R*,R*)]-1-(1,2,3,4-tetrahydro-3-isoquinolinyl)carbonyl-2-pyrrolidinecarbonitrile trifluoroacetate]	7.6	41	790
